Laboratory results: patent publication US12195482B1 (Arcus Biosciences, Inc., priority 2022, dated 2025)

Experiments:
Axl = target: T1, Axl (Homo sapiens, UniProt P30530); assay: Biochemical potency, HTRF KinEASE-TK kinase assay; design: purchased Invitrogen; settings: 5 nM AXL, 700 μM ATP
T1 sequence (P30530 26-894): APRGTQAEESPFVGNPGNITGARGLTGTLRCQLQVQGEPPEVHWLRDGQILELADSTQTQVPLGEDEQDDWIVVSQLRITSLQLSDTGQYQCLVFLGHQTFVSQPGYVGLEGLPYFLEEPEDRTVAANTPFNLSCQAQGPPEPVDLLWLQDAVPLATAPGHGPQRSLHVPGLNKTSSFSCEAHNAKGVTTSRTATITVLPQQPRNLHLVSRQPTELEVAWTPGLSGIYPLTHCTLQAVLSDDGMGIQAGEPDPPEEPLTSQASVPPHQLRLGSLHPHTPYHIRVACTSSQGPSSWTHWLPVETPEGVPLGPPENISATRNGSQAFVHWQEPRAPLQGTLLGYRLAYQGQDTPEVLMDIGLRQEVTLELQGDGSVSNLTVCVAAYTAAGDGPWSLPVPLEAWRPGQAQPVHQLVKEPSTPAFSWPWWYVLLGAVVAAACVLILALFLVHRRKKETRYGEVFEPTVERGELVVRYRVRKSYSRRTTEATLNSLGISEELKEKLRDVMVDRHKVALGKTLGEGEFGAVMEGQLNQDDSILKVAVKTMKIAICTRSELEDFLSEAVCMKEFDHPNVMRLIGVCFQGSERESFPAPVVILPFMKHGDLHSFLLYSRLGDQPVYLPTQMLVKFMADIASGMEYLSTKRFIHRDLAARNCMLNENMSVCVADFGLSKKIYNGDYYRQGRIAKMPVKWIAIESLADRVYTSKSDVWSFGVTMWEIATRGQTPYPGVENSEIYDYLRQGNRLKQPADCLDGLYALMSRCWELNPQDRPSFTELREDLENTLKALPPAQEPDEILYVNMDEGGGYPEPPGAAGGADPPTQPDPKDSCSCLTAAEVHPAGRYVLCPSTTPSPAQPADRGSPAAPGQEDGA
Summary of the method: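 Steps: compound plus kinase, 1 h RT; add ATP (700 µM final) and biotin-TK substrate (800 nM final); run 2 h RT; stop into streptavidin-XL665/anti-phospho cryptate detection mix, 1 h; read 665/620. AXL at 5 nM, TYRO3 and MER at 1 nM.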

p-AXL = target: T2, p-AXL (Homo sapiens, UniProt P30530); assay: Axl phosphorylation inhibition ELISA in HEK293T cells transfected with NanoLuc-tagged AXL; format: cell-based; settings: 1 h compound incubation, media (OptiMEM)
T2 construct: expressed in transfected cells; host or cells: HEK293T
T2 sequence (P30530 26-894): T1 sequence (P30530 26-894)
Summary of the method: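 HEK293T cells transiently transfected one day earlier with NanoLuc-tagged AXL were exposed to 22-point 2-fold compound dilutions for 1 h at 37° C (70,000 cells/well), then lysed. Lysates captured on anti-phospho-tyrosine coated plates for 2 h; bound p-AXL read by NanoLuc luminescence; IC50 from 4-parameter logistic fit.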

Row | IC50 (Axl) | IC50 (p-AXL) | SMILES
1 | < 100 nM | < 100 nM | Cn1ccnc1-c1ccc(-c2n[nH]c3ncc(-c4ccc5c(c4)CC[C@@H](N4C6COCC4C6)CC5)cc23)cc1 [Example 111, 6-[(7S)-2-{3-[4-(1-Methyl-1H-imidazol-2-yl)phenyl]-1H-pyrazolo[3,4-b]pyridin-5-yl}-6,7,8,9-tetrahydro-5H-benzo[7]annulen-7-yl]-3-oxa-6-azabicyclo[3.1.1]heptane]
2 | < 100 nM | < 100 nM | COC[C@H]1CCN([C@H]2CCc3ccc(-c4cnc5[nH]nc(-c6ccc(-c7ncccc7C)cc6)c5c4)cc3CC2)C1 [Example 132, 2-(4-{5-[(7S)-7-[(3S)-3-(Methoxymethyl)pyrrolidin-1-yl]-6,7,8,9-tetrahydro-5H-benzo[7]annulen-2-yl]-1H-pyrazolo[3,4-b]pyridin-3-yl}phenyl)-3-methylpyridine]
3 | < 100 nM | < 100 nM | CC(C)(O)c1cccnc1-c1ccc(-c2c[nH]c3ncc(-c4ccc5c(c4)CC[C@@H](N4C6COCC4C6)CC5)cc23)cc1 [Example 95, 2-[2-(4-{5-[(7S)-7-{3-Oxa-6-azabicyclo[3.1.1]heptan-6-yl}-6,7,8,9-tetrahydro-5H-benzo[7]annulen-2-yl]-1H-pyrrolo[2,3-b]pyridin-3-yl}phenyl)pyridin-3-yl]propan-2-ol]
4 | < 100 nM | 100 to 1000 nM | Cc1cc(F)cnc1-c1ccc(-c2n[nH]c3ncc(-c4ccc5c(c4)CC[C@@H](N4C6COCC4C6)CC5)cc23)cc1 [Example 28, 6-[(7S)-3-[3-[4-(5-Fluoro-3-methylpyridin-2-yl)phenyl]-1H-pyrazolo[3,4-b]pyridin-5-yl]-6,7,8,9-tetrahydro-5H-benzo[7]annulen-7-yl]-3-oxa-6-azabicyclo[3.1.1]heptane]
5 | < 100 nM | < 100 nM | COc1cccnc1-c1ccc(-c2n[nH]c3ncc(-c4ccc5c(c4)CC[C@@H](N4C6COCC4C6)CC5)cc23)cc1 [Example 166, 6-[(7S)-2-{3-[4-(3-Methoxypyridin-2-yl)phenyl]-1H-pyrazolo[3,4-b]pyridin-5-yl}-6,7,8,9-tetrahydro-5H-benzo[7]annulen-7-yl]-3-oxa-6-azabicyclo[3.1.1]heptane]
6 | > 1000 nM | 100 to 1000 nM | Cc1cc(-c2ncccc2C)ccc1-c1n[nH]c2ncc(-c3ccc4c(c3)CC[C@@H](N3C5COCC3C5)CC4)cc12 [Example 30, 6-[(7S)-3-[3-[2-Methyl-4-(3-methylpyridin-2-yl)phenyl]-1H-pyrazolo[3,4-b]pyridin-5-yl]-6,7,8,9-tetrahydro-5H-benzo[7]annulen-7-yl]-3-oxa-6-azabicyclo[3.1.1]heptane]
7 | < 100 nM | < 100 nM | O=C1CCCN1c1cccnc1-c1ccc(-c2c[nH]c3ncc(-c4ccc5c(c4)CC[C@@H](N4C6COCC4C6)CC5)cc23)cc1 [Example 7, 1-[2-(4-{5-[(7S)-7-{3-Oxa-6-azabicyclo[3.1.1]heptan-6-yl}-6,7,8,9-tetrahydro-5H-benzo[7]annulen-2-yl]-1H-pyrrolo[2,3-b]pyridin-3-yl}phenyl)pyridin-3-yl]pyrrolidin-2-one]
8 | < 100 nM | < 100 nM | COc1cccnc1-c1ccc(-c2c[nH]c3ncc(-c4ccc5c(c4)CC[C@@H](N4C6COCC4C6)CC5)cc23)cc1 [Example 164, 6-[(7S)-2-{3-[4-(3-Methoxypyridin-2-yl)phenyl]-1H-pyrrolo[2,3-b]pyridin-5-yl}-6,7,8,9-tetrahydro-5H-benzo[7]annulen-7-yl]-3-oxa-6-azabicyclo[3.1.1]heptane]
9 | < 100 nM | 100 to 1000 nM | O=c1ccccn1-c1ccc(-c2n[nH]c3ncc(-c4ccc5c(c4)CC[C@@H](N4C6COCC4C6)CC5)cc23)cc1 [Example 31, 1-[4-[5-[(7S)-7-(3-Oxa-6-azabicyclo[3.1.1]heptan-6-yl)-6,7,8,9-tetrahydro-5H-benzo[7]annulen-3-yl]-1H-pyrazolo[3,4-b]pyridin-3-yl]phenyl]pyridin-2-one]
10 | < 100 nM | < 100 nM | Cc1cncnc1-c1ccc(-c2n[nH]c3ncc(-c4ccc5c(c4)CC[C@@H](N4C6COCC4C6)CC5)cc23)cc1 [Example 174, 6-[(7S)-2-{3-[4-(5-Methylpyrimidin-4-yl)phenyl]-1H-pyrazolo[3,4-b]pyridin-5-yl}-6,7,8,9-tetrahydro-5H-benzo[7]annulen-7-yl]-3-oxa-6-azabicyclo[3.1.1]heptane]
11 | < 100 nM | < 100 nM | Cc1cnc(-c2ccc(-c3n[nH]c4ncc(-c5ccc6c(c5)CC[C@@H](N5C7COCC5C7)CC6)cc34)cc2)c(C)c1 [Example 119, 6-[(7S)-2-{3-[4-(3,5-Dimethylpyridin-2-yl)phenyl]-1H-pyrazolo[3,4-b]pyridin-5-yl}-6,7,8,9-tetrahydro-5H-benzo[7]annulen-7-yl]-3-oxa-6-azabicyclo[3.1.1]heptane]
12 | < 100 nM | < 100 nM | Cc1ncc(C)c(-c2ccc(-c3c[nH]c4ncc(-c5ccc6c(c5)CC[C@@H](N5C7COCC5C7)CC6)cc34)cc2)n1 [Example 123, 6-[(7S)-2-{3-[4-(2,5-Dimethylpyrimidin-4-yl)phenyl]-1H-pyrrolo[2,3-b]pyridin-5-yl}-6,7,8,9-tetrahydro-5H-benzo[7]annulen-7-yl]-3-oxa-6-azabicyclo[3.1.1]heptane]
13 | < 100 nM | 100 to 1000 nM | Cc1cccnc1-c1ccc(-c2c[nH]c3ncc(-c4ccc5c(c4)CC[C@@H](N[C@H]4CCCOC4)CC5)cc23)cc1 [Example 186, (3S)—N-[(7S)-2-{3-[4-(3-Methylpyridin-2-yl)phenyl]-1H-pyrrolo[2,3-b]pyridin-5-yl}-6,7,8,9-tetrahydro-5H-benzo[7]annulen-7-yl]oxan-3-amine]
14 | < 100 nM | 100 to 1000 nM | Cc1cccc(-c2ccc(-c3n[nH]c4ncc(-c5ccc6c(c5)CC[C@@H](N5C7COCC5C7)CC6)cc34)cc2)n1 [Example 116, 6-[(7S)-2-{3-[4-(6-Methylpyridin-2-yl)phenyl]-1H-pyrazolo[3,4-b]pyridin-5-yl}-6,7,8,9-tetrahydro-5H-benzo[7]annulen-7-yl]-3-oxa-6-azabicyclo[3.1.1]heptane]
15 | < 100 nM | < 100 nM | c1ccc(-c2ccc(-c3n[nH]c4ncc(-c5ccc6c(c5)CC[C@@H](N5C7COCC5C7)CC6)cc34)cc2)nc1 [Example 154, 6-[(7S)-2-{3-[4-(Pyridin-2-yl)phenyl]-2H-pyrazolo[3,4-b]pyridin-5-yl}-6,7,8,9-tetrahydro-5H-benzo[7]annulen-7-yl]-3-oxa-6-azabicyclo[3.1.1]heptane]
16 | < 100 nM | 100 to 1000 nM | c1ccc(-c2ccc(-c3c[nH]c4ncc(-c5ccc6c(c5)CC[C@@H](N5C7COCC5C7)CC6)cc34)cc2)nc1 [Example 155, 6-[(7S)-2-{3-[4-(Pyridin-2-yl)phenyl]-1H-pyrrolo[2,3-b]pyridin-5-yl}-6,7,8,9-tetrahydro-5H-benzo[7]annulen-7-yl]-3-oxa-6-azabicyclo[3.1.1]heptane]
17 | < 100 nM | < 100 nM | CN(C(=O)C1CC1)c1cccnc1-c1ccc(-c2n[nH]c3ncc(-c4ccc5c(c4)CC[C@@H](N4C6COCC4C6)CC5)cc23)cc1 [Example 128, N-Methyl-N-[2-(4-{5-[(7S)-7-{3-oxa-6-azabicyclo[3.1.1]heptan-6-yl}-6,7,8,9-tetrahydro-5H-benzo[7]annulen-2-yl]-1H-pyrazolo[3,4-b]pyridin-3-yl}phenyl)pyridin-3-yl]cyclopropanecarboxamide]
18 | < 100 nM | < 100 nM | Cc1cccnc1-c1ccc(-c2c[nH]c3ncc(-c4ccc5c(c4)CC[C@@H](N4C[C@@H]6C[C@H]4CO6)CC5)cc23)cc1 [Example 187, (4S)-5-[(7S)-2-{3-[4-(3-Methylpyridin-2-yl)phenyl]-1H-pyrrolo[2,3-b]pyridin-5-yl}-6,7,8,9-tetrahydro-5H-benzo[7]annulen-7-yl]-2-oxa-5-azabicyclo[2.2.1]heptane]
19 | < 100 nM | < 100 nM | CS(=O)(=O)c1cccnc1-c1ccc(-c2n[nH]c3ncc(-c4ccc5c(c4)CC[C@@H](N4C6COCC4C6)CC5)cc23)cc1 [Example 101, 6-[(7S)-2-{3-[4-(3-Methanesulfonylpyridin-2-yl)phenyl]-1H-pyrazolo[3,4-b]pyridin-5-yl}-6,7,8,9-tetrahydro-5H-benzo[7]annulen-7-yl]-3-oxa-6-azabicyclo[3.1.1]heptane]
